Source: the kinase profiling compilation of Christmann-Franck et al. (2016)

Tests used:
Assay in all cases: KINOMEscan competition binding
Conditions in all cases: compound 10.0 µM
[1] = molecular target: MET (human) (UniProt P08581)
[2] = molecular target: TNIK (human) (UniProt Q9UKE5)
[3] = molecular target: RPS6KA2 KD2 (human) (UniProt Q15349)
[4] = molecular target: TYK2 JH1 catalytic (human) (UniProt P29597)
[5] = molecular target: PRKACB (human) (UniProt P22694)
[6] = molecular target: CSK (human) (UniProt P41240)
[7] = molecular target: CDK11B (human) (UniProt P21127)
[8] = molecular target: ROS1 (human) (UniProt P08922)
[9] = molecular target: WEE2 (human) (UniProt P0C1S8)
[10] = molecular target: AKT3 (human) (UniProt Q9Y243)
[11] = molecular target: RPS6KA5 KD1 (human) (UniProt O75582)
[12] = molecular target: NLK (human) (UniProt Q9UBE8)
[13] = molecular target: ULK3 (human) (UniProt Q6PHR2)
[14] = molecular target: PIP4K2B (human) (UniProt P78356)
[15] = molecular target: CHUK (human) (UniProt O15111)
[16] = molecular target: PLK4 (human) (UniProt O00444)
[17] = molecular target: PAK7 (human) (UniProt Q9P286)
[18] = molecular target: STK11 (human) (UniProt Q15831)
[19] = molecular target: LYN (human) (UniProt P07948)
[20] = molecular target: CAMKK2 (human) (UniProt Q96RR4)
[21] = molecular target: PHKG2 (human) (UniProt P15735)
[22] = molecular target: RIOK2 (human) (UniProt Q9BVS4)
[23] = molecular target: CDK16 (human) (UniProt Q00536)
[24] = molecular target: EPHA7 (human) (UniProt Q15375)
[25] = molecular target: ACVR1 (human) (UniProt Q04771)
[26] = molecular target: RPS6KA4 KD1 (human) (UniProt O75676)
[27] = molecular target: IRAK1 (human) (UniProt P51617)
[28] = molecular target: TBK1 (human) (UniProt Q9UHD2)
[29] = molecular target: RIPK2 (human) (UniProt O43353)
[30] = molecular target: PAK3 (human) (UniProt O75914)
[31] = molecular target: RPS6KA3 KD1 (human) (UniProt P51812)
[32] = molecular target: CSNK1G3 (human) (UniProt Q9Y6M4)
[33] = molecular target: ICK (human) (UniProt Q9UPZ9)
[34] = molecular target: PAK1 (human) (UniProt Q13153)
[35] = molecular target: MAP2K5 (human) (UniProt Q13163)
[36] = molecular target: MTOR (human) (UniProt P42345)
[37] = molecular target: PRKCH (human) (UniProt P24723)
[38] = molecular target: CDC42BPG (human) (UniProt Q6DT37)
[39] = molecular target: EGFR (human) (UniProt P00533)
[40] = tested on: EGFR (human), P00533 [752-759 del]

Chain of RPS6KA3 KD1 (human) (P51812 whole entry, looked up): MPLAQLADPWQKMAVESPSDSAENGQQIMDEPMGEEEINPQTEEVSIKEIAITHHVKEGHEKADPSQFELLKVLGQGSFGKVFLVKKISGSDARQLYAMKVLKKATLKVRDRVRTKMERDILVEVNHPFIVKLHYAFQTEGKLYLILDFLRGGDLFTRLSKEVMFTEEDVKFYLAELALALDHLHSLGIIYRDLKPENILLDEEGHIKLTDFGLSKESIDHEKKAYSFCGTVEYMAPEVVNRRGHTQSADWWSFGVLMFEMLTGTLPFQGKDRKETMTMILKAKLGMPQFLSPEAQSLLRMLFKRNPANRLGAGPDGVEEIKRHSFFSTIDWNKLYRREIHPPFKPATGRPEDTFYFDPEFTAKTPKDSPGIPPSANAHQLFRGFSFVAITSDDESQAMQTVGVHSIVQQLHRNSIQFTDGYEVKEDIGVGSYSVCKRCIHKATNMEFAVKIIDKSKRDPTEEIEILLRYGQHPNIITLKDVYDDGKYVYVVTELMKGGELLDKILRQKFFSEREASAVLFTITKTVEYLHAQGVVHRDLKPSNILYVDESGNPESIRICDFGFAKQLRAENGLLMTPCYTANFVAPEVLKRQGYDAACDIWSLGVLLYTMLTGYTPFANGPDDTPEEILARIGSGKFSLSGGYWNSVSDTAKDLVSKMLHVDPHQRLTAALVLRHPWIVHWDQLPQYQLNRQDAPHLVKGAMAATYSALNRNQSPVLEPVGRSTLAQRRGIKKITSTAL
Chain of PIP4K2B (human) (P78356 whole entry, looked up): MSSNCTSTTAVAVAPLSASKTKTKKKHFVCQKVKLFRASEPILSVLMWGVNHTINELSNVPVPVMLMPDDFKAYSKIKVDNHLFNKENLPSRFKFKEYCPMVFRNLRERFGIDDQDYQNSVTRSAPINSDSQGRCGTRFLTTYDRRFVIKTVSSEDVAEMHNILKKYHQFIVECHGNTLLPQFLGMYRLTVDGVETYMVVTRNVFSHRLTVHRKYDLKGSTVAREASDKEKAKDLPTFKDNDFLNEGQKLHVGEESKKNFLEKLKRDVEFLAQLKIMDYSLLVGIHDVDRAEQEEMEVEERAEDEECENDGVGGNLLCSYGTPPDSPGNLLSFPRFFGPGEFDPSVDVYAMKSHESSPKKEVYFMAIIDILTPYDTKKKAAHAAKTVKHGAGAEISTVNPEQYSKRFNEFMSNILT
Chain of CSNK1G3 (human) (Q9Y6M4 whole entry, looked up): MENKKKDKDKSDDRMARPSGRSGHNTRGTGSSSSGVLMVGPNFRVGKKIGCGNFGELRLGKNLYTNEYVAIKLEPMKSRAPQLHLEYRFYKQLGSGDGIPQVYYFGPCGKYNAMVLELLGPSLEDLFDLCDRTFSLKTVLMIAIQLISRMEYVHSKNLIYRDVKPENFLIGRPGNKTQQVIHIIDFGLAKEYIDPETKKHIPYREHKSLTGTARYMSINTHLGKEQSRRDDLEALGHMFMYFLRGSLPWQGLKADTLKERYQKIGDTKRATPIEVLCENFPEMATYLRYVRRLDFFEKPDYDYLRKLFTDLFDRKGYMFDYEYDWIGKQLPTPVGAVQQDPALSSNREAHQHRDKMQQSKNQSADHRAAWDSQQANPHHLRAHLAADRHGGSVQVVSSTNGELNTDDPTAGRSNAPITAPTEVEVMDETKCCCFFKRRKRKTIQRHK
Chain of CDC42BPG (human) (Q6DT37 whole entry, looked up): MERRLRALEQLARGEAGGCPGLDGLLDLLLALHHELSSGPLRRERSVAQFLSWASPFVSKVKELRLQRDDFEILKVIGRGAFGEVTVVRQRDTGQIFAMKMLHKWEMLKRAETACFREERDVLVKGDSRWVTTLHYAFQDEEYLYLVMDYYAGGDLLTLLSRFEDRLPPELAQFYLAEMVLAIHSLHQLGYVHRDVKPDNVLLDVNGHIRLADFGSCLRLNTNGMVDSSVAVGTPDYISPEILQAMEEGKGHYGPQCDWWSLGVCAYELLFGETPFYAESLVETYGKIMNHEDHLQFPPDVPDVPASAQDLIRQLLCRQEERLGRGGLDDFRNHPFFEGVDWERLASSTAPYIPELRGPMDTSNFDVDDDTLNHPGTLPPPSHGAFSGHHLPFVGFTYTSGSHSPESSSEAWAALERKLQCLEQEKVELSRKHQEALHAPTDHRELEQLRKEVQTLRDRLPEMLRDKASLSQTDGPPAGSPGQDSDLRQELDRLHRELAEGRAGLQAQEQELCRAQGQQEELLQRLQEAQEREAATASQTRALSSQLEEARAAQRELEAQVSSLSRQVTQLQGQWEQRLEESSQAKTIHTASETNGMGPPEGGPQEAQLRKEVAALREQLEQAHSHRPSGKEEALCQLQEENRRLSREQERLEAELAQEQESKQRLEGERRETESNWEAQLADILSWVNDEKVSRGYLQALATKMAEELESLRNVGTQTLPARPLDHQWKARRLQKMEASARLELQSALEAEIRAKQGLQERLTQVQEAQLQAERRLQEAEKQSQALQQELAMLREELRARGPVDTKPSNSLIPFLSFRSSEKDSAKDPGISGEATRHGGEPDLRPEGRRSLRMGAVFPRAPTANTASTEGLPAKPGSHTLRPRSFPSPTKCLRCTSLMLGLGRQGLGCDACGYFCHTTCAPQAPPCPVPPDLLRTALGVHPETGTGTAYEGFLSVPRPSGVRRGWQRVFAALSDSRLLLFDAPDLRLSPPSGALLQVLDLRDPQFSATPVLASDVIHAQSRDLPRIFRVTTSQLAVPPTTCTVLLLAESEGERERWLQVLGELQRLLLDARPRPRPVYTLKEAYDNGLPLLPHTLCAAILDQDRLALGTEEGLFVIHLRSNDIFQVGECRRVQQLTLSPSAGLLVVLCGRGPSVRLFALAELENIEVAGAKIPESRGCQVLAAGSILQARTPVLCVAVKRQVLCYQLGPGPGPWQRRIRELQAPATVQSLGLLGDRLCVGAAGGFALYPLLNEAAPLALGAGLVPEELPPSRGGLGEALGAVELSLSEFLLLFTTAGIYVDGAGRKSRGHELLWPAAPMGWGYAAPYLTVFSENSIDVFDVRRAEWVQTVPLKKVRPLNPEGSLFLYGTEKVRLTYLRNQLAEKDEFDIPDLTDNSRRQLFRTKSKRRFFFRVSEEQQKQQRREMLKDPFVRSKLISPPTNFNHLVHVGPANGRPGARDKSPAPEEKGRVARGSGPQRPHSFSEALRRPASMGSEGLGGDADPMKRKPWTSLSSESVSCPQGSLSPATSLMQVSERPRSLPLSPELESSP
Chain of PAK7 (human) (Q9P286 whole entry, looked up): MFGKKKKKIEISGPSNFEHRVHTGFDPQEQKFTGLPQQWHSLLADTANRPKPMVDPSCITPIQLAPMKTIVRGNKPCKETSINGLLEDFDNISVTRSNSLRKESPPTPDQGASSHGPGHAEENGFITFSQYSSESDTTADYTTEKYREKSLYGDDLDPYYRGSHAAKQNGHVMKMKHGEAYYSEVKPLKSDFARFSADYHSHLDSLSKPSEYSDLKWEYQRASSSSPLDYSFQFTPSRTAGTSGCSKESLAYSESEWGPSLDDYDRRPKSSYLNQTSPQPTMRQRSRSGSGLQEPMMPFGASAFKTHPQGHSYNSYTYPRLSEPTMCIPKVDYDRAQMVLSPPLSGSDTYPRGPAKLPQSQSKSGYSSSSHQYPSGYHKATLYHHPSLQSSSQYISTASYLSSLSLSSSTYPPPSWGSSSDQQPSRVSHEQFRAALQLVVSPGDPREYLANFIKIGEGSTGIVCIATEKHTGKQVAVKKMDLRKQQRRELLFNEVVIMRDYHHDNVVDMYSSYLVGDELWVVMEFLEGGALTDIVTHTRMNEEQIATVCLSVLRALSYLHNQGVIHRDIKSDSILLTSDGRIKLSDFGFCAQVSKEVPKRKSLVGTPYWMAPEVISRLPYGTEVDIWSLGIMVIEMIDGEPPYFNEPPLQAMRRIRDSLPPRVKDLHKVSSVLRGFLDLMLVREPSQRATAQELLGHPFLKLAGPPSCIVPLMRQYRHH
Chain of CAMKK2 (human) (Q96RR4 whole entry, looked up): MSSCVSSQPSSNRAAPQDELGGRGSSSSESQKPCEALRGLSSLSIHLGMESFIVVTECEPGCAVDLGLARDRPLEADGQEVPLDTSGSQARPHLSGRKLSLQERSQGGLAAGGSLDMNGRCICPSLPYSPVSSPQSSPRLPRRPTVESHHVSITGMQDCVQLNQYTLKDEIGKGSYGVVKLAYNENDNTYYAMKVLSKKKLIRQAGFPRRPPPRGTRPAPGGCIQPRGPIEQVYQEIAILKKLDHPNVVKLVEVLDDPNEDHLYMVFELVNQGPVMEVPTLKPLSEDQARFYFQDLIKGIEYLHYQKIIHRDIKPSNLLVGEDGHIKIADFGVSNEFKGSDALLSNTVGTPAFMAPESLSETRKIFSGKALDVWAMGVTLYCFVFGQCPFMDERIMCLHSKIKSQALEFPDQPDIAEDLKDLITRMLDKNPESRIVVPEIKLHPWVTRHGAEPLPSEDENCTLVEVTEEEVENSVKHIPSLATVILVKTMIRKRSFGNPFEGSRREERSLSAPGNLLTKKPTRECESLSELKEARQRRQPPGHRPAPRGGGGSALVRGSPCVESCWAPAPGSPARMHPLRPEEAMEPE
Chain of RIPK2 (human) (O43353 whole entry, looked up): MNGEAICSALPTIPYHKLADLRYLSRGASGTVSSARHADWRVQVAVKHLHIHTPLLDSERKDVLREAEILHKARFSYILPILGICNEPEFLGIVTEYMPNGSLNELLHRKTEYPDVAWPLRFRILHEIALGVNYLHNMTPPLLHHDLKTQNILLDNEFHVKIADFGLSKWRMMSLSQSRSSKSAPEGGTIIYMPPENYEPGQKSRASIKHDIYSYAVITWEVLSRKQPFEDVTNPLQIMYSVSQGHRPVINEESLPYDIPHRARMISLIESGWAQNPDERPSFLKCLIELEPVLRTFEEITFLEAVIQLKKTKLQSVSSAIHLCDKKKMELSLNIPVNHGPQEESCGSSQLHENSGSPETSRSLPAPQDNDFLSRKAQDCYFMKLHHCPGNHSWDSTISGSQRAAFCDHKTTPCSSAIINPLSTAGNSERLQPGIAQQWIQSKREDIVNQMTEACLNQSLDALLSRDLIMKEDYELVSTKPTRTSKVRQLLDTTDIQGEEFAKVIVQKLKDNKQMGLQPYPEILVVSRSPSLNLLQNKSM

## CNC(=O)c1cc(Oc2ccc(NC(=O)Nc3ccc(Cl)c(C(F)(F)F)c3)cc2)ccn1
[1]
  kinase still bound, per cent of control: 69%
[2]
  kinase still bound, per cent of control: 27%
[3]
  kinase still bound, per cent of control: 81%
[4]
  kinase still bound, per cent of control: 70%
[5]
  kinase still bound, per cent of control: 100%
[6]
  kinase still bound, per cent of control: 70%
[7]
  kinase still bound, per cent of control: 98%
[8]
  kinase still bound, per cent of control: 83%
[9]
  kinase still bound, per cent of control: 87%
[10]
  kinase still bound, per cent of control: 100%
[11]
  kinase still bound, per cent of control: 100%
[12]
  kinase still bound, per cent of control: 32%
[13]
  kinase still bound, per cent of control: 92%
[14]
  kinase still bound, per cent of control: 94%
[15]
  kinase still bound, per cent of control: 81%
[16]
  kinase still bound, per cent of control: 28%
[17]
  kinase still bound, per cent of control: 100%
[18]
  kinase still bound, per cent of control: 76%
[19]
  kinase still bound, per cent of control: 16%
[20]
  kinase still bound, per cent of control: 72%
[21]
  kinase still bound, per cent of control: 100%
[22]
  kinase still bound, per cent of control: 97%
[23]
  kinase still bound, per cent of control: 72%
[24]
  kinase still bound, per cent of control: 25%
[25]
  kinase still bound, per cent of control: 100%
[26]
  kinase still bound, per cent of control: 85%
[27]
  kinase still bound, per cent of control: 70%
[28]
  kinase still bound, per cent of control: 100%
[29]
  kinase still bound, per cent of control: 18%
[30]
  kinase still bound, per cent of control: 40%
[31]
  kinase still bound, per cent of control: 81%
[32]
  kinase still bound, per cent of control: 91%
[33]
  kinase still bound, per cent of control: 92%
[34]
  kinase still bound, per cent of control: 62%
[35]
  kinase still bound, per cent of control: 0.3%
[36]
  kinase still bound, per cent of control: 80%
[37]
  kinase still bound, per cent of control: 100%

## COCC(=O)NC/C=C/c1ccc2ncnc(Nc3ccc(Oc4ccc(C)nc4)c(C)c3)c2c1
[1]
  kinase still bound, per cent of control: 74%
[2]
  kinase still bound, per cent of control: 89%
[4]
  kinase still bound, per cent of control: 100%
[5]
  kinase still bound, per cent of control: 100%
[6]
  kinase still bound, per cent of control: 59%
[7]
  kinase still bound, per cent of control: 100%
[8]
  kinase still bound, per cent of control: 100%
[9]
  kinase still bound, per cent of control: 81%
[10]
  kinase still bound, per cent of control: 100%
[11]
  kinase still bound, per cent of control: 99%
[12]
  kinase still bound, per cent of control: 100%
[38]
  kinase still bound, per cent of control: 90%
[13]
  kinase still bound, per cent of control: 68%
[14]
  kinase still bound, per cent of control: 100%
[15]
  kinase still bound, per cent of control: 100%
[16]
  kinase still bound, per cent of control: 74%
[17]
  kinase still bound, per cent of control: 87%
[19]
  kinase still bound, per cent of control: 92%
[20]
  kinase still bound, per cent of control: 85%
[21]
  kinase still bound, per cent of control: 86%
[22]
  kinase still bound, per cent of control: 100%
[23]
  kinase still bound, per cent of control: 74%
[24]
  kinase still bound, per cent of control: 100%
[25]
  kinase still bound, per cent of control: 90%
[26]
  kinase still bound, per cent of control: 97%
[27]
  kinase still bound, per cent of control: 100%
[28]
  kinase still bound, per cent of control: 90%
[29]
  kinase still bound, per cent of control: 26%
[30]
  kinase still bound, per cent of control: 70%
[31]
  kinase still bound, per cent of control: 92%
[32]
  kinase still bound, per cent of control: 100%
[33]
  kinase still bound, per cent of control: 100%
[34]
  kinase still bound, per cent of control: 81%
[35]
  kinase still bound, per cent of control: 0.2%
[36]
  kinase still bound, per cent of control: 79%
[37]
  kinase still bound, per cent of control: 100%

## N#CCNC(=O)c1ccc(-c2ccnc(Nc3ccc(N4CCOCC4)cc3)n2)cc1
[1]
  kinase still bound, per cent of control: 100%
[2]
  kinase still bound, per cent of control: 59%
[3]
  kinase still bound, per cent of control: 71%
[4]
  kinase still bound, per cent of control: 0.25%
[5]
  kinase still bound, per cent of control: 36%
[6]
  kinase still bound, per cent of control: 100%
[7]
  kinase still bound, per cent of control: 66%
[8]
  kinase still bound, per cent of control: 100%
[9]
  kinase still bound, per cent of control: 100%
[10]
  kinase still bound, per cent of control: 100%
[11]
  kinase still bound, per cent of control: 100%
[12]
  kinase still bound, per cent of control: 86%
[38]
  kinase still bound, per cent of control: 96%
[13]
  kinase still bound, per cent of control: 0.25%
[39]
  kinase still bound, per cent of control: 100%
[14]
  kinase still bound, per cent of control: 89%
[15]
  kinase still bound, per cent of control: 0%
[16]
  kinase still bound, per cent of control: 15%
[17]
  kinase still bound, per cent of control: 56%
[18]
  kinase still bound, per cent of control: 61%
[19]
  kinase still bound, per cent of control: 94%
[40]
  kinase still bound, per cent of control: 72%
[20]
  kinase still bound, per cent of control: 51%
[21]
  kinase still bound, per cent of control: 23%
[22]
  kinase still bound, per cent of control: 68%
[23]
  kinase still bound, per cent of control: 21%
[24]
  kinase still bound, per cent of control: 96%
[25]
  kinase still bound, per cent of control: 0.95%
[26]
  kinase still bound, per cent of control: 100%
[27]
  kinase still bound, per cent of control: 1.3%
[28]
  kinase still bound, per cent of control: 10%
[29]
  kinase still bound, per cent of control: 88%
[30]
  kinase still bound, per cent of control: 73%
[31]
  kinase still bound, per cent of control: 100%
[32]
  kinase still bound, per cent of control: 100%
[33]
  kinase still bound, per cent of control: 100%
[34]
  kinase still bound, per cent of control: 100%
[35]
  kinase still bound, per cent of control: 100%
[36]
  kinase still bound, per cent of control: 100%

## COc1cc2ncn(-c3cc(OCc4ccccc4C(F)(F)F)c(C(N)=O)s3)c2cc1OC
[1]
  kinase still bound, per cent of control: 15%
[2]
  kinase still bound, per cent of control: 32%
[3]
  kinase still bound, per cent of control: 74%
[4]
  kinase still bound, per cent of control: 59%
[5]
  kinase still bound, per cent of control: 100%
[6]
  kinase still bound, per cent of control: 97%
[7]
  kinase still bound, per cent of control: 100%
[8]
  kinase still bound, per cent of control: 78%
[9]
  kinase still bound, per cent of control: 100%
[10]
  kinase still bound, per cent of control: 100%
[11]
  kinase still bound, per cent of control: 100%
[12]
  kinase still bound, per cent of control: 68%
[38]
  kinase still bound, per cent of control: 64%
[13]
  kinase still bound, per cent of control: 77%
[14]
  kinase still bound, per cent of control: 6.6%
[15]
  kinase still bound, per cent of control: 86%
[16]
  kinase still bound, per cent of control: 29%
[17]
  kinase still bound, per cent of control: 98%
[18]
  kinase still bound, per cent of control: 37%
[19]
  kinase still bound, per cent of control: 60%
[40]
  kinase still bound, per cent of control: 100%
[20]
  kinase still bound, per cent of control: 44%
[21]
  kinase still bound, per cent of control: 100%
[22]
  kinase still bound, per cent of control: 66%
[23]
  kinase still bound, per cent of control: 100%
[24]
  kinase still bound, per cent of control: 79%
[25]
  kinase still bound, per cent of control: 60%
[26]
  kinase still bound, per cent of control: 69%
[27]
  kinase still bound, per cent of control: 54%
[28]
  kinase still bound, per cent of control: 83%
[29]
  kinase still bound, per cent of control: 41%
[30]
  kinase still bound, per cent of control: 77%
[31]
  kinase still bound, per cent of control: 22%
[32]
  kinase still bound, per cent of control: 100%
[33]
  kinase still bound, per cent of control: 100%
[34]
  kinase still bound, per cent of control: 100%
[35]
  kinase still bound, per cent of control: 0.45%
[36]
  kinase still bound, per cent of control: 78%
[37]
  kinase still bound, per cent of control: 100%
